Measurements taken from patent US8530490B2, “Uracil compound or salt thereof having human deoxyuridine triphosphatase inhibitory activity” (Taiho Pharmaceutical Co., Ltd., priority 2008, dated 2013).

Molecular target: human dUTPase (Homo sapiens (Human), UniProt P33316)
Assay: Human dUTPase inhibitory effect: production of [5-3H]dUMP from [5-3H]dUTP, measured by HPLC with flow scintillation
Assay type: biochemical
Settings: [5-3H]dUMP production from [5-3H]dUTP, 37° C., 15 minutes
Procedure, shortened: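 E. coli-expressed purified human dUTPase reacted with 1 μM dUTP stock containing [5-3H]dUTP in Tris pH 7.4, MgCl2, 2-mercaptoethanol and albumin, 15 min at 37° C; stopped by 1 min at 100° C. [5-3H]dUMP formed was separated by reversed-phase ion-pair HPLC and quantified by flow scintillation versus water control.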

human dUTPase, sequence (P33316 94-252): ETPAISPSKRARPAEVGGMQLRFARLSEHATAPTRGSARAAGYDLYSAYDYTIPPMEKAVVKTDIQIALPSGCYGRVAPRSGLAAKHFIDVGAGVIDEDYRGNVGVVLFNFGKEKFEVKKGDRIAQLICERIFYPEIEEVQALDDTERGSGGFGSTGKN

SMILES | IC50 [nM]
CC[C@@H](NS(=O)(=O)c1ccc(Cn2ccc(=O)[nH]c2=O)cc1)c1ccc(F)c(OCC2CC2)c1 [Example 97, (R)—N-(1-(3-(cyclopropylmethoxy)-4-fluorophenyl)propyl)-4-((2,4-dioxo-3,4-dihydropyrimidin-1(2H)-yl)methyl)benzenesulfonamide] | 580
C[C@@H](NS(=O)(=O)CCCn1ccc(=O)[nH]c1=O)c1ccc(F)c(OCC2CC2)c1 [Example 98, (R)—N-(1-(3-(cyclopropylmethoxy)-4-fluorophenyl)ethyl)-3-(2,4-dioxo-3,4-dihydropyrimidin-1(2H)-yl)propane-1-sulfonamide] | 660
CC[C@@](O)(CNS(=O)(=O)CCCn1ccc(=O)[nH]c1=O)c1ccc(F)c(OC2CCCC2)c1 [Example 99, (S)—N-(2-(3-(cyclopentyloxy)-4-fluorophenyl)-2-hydroxybutyl)-3-(2,4-dioxo-3,4-dihydroxypyrimidin-1(2H)-yl)propane-1-sulfonamide] | 1810
C[C@@H](NS(=O)(=O)CCCn1ccc(=O)[nH]c1=O)c1cccc(OC2CCCC2)c1 [Example 104, (R)—N-(1-(3-(cyclopentyloxy)phenyl)ethyl)-3-(2,4-dioxo-3,4-dihydropyrimidin-1(2H)-yl)propane-1-sulfonamide] | 1460
C[C@@H](NS(=O)(=O)CC/C=C/Cn1ccc(=O)[nH]c1=O)c1cccc(OC2CCCC2)c1 [Example 105, (R,E)-N-(1-(3-(cyclopentyloxy)phenyl)ethyl)-5-(2,4-dioxo-3,4-dihydropyrimidin-1(2H)-yl)pent-3-ene-1-sulfonamide] | 170
C[C@@H](NS(=O)(=O)CCCn1ccc(=O)[nH]c1=O)c1cccc(OCC(F)F)c1 [Example 107, (R)—N-(1-(3-(2,2-difluoroethoxy)phenyl)ethyl)-3-(2,4-dioxo-3,4-dihydropyrimidin-1(2H)-yl)propane-1-sulfonamide] | 1720
C[C@@H](NS(=O)(=O)CCCn1ccc(=O)[nH]c1=O)c1cccc(OCC2CC2)c1 [Example 108, (R)—N-(1-(3-(cyclopropylmethoxy)phenyl)ethyl)-3-(2,4-dioxo-3,4-dihydropyrimidin-1(2H)-yl)propane-1-sulfonamide] | 1710
C[C@@H](NS(=O)(=O)CC/C=C/Cn1ccc(=O)[nH]c1=O)c1cccc(OCC2CC2)c1 [Example 110, (R,E)-N-(1-(3-(cyclopropylmethoxy)phenyl)ethyl)-5-(2,4-dioxo-3,4-dihydropyrimidin-1(2H)-yl)pent-3-ene-1-sulfonamide] | 50
O=c1ccn(CCCS(=O)(=O)NC(c2ccccc2)c2ccccc2)c(=O)[nH]1 [Example 111, N-benzhydryl-3-(2,4-dioxo-3,4-dihydropyrimidin-1(2H)-yl)propane-1-sulfonamide] | 8270
O=c1ccn(CCCS(=O)(=O)NC(c2ccccc2)c2cccc(OCC3CC3)c2)c(=O)[nH]1 (stereo not drawn) [Example 112, N-((3-(cyclopropylmethoxy)phenyl)(phenyl)methyl)-3-(2,4-dioxo-3,4-dihydropyrimidin-1(2H)-yl)propane-1-sulfonamide] | 2230
O=c1ccn(CCCS(=O)(=O)N[C@H](c2ccc(F)cc2)c2cccc(OCC3CC3)c2)c(=O)[nH]1 [Example 114, (R)—N-((3-(cyclopropylmethoxy)phenyl)(4-fluorophenyl)methyl)-3-(2,4-dioxo-3,4-dihydropyrimidin-1(2H)-yl)propane-1-sulfonamide] | 580
CC[C@@H](NS(=O)(=O)CCCn1ccc(=O)[nH]c1=O)c1ccccc1 [Example 118, (R)-3-(2,4-dioxo-3,4-dihydropyrimidin-1(2H)-yl)-N-(1-phenylpropyl)propane-1-sulfonamide] | 9800
CN(CC1(c2ccccc2)CC1)S(=O)(=O)CCCn1ccc(=O)[nH]c1=O [Example 133, 3-(2,4-dioxo-3,4-dihydropyrimidin-1(2H)-yl)-N-methyl-N-((1-phenylcyclopropyl)methyl)propane-1-sulfonamide] | 6560
CN(CCc1cccc(OCC2CC2)c1)S(=O)(=O)CCCn1ccc(=O)[nH]c1=O [Example 134, N-(3-(cyclopropylmethoxy)phenethyl)-3-(2,4-dioxo-3,4-dihydropyrimidin-1(2H)-yl)-N-methylpropane-1-sulfonamide] | 4540
COc1cccc(S(=O)(=O)NC(C)(C)CCCOCn2ccc(=O)[nH]c2=O)c1 [Example 135, N-(5-((2,4-dioxo-3,4-dihydropyrimidin-1(2H)-yl)methoxy)-2-methylpentan-2-yl)-3-methoxybenzenesulfonamide] | 1120
CC(C)(CCCOCn1ccc(=O)[nH]c1=O)NS(=O)(=O)c1ccc(Cl)cc1 [Example 136, 4-chloro-N-(5-((2,4-dioxo-3,4-dihydropyrimidin-1(2H)-yl)methoxy)-2-methylpentan-2-yl)benzenesulfonamide] | 3940
CC(C)(CCCOCn1ccc(=O)[nH]c1=O)NS(=O)(=O)c1ccc(Cl)c(Cl)c1 [Example 137, 3,4-dichloro-N-(5-((2,4-dioxo-3,4-dihydropyrimidin-1(2H)-yl)methoxy)-2-methylpentan-2-yl)benzenesulfonamide] | 2050
CC(C)(CCCOCn1ccc(=O)[nH]c1=O)NS(=O)(=O)c1cc(Cl)c(Cl)s1 [Example 138, 4,5-dichloro-N-(5-((2,4-dioxo-3,4-dihydropyrimidin-1(2H)-yl)methoxy)-2-methylpentan-2-yl)thiophene-2-sulfonamide] | 3890
CC(C)(CCCOCn1ccc(=O)[nH]c1=O)NS(=O)(=O)c1cc(Cl)cc(Cl)c1 [Example 139, 3,5-dichloro-N-(5-((2,4-dioxo-3,4-dihydropyrimidin-1(2H)-yl)methoxy)-2-methylpentan-2-yl)benzenesulfonamide] | 4990
CC(C)(CCCOCn1ccc(=O)[nH]c1=O)NS(=O)(=O)c1cccc(Br)c1 [Example 141, 3-bromo-N-(5-((2,4-dioxo-3,4-dihydropyrimidin-1(2H)-yl)methoxy)-2-methylpentan-2-yl)benzenesulfonamide] | 4350
CC(C)(CCCOCn1ccc(=O)[nH]c1=O)NS(=O)(=O)c1ccccc1Cl [Example 142, 2-chloro-N-(5-((2,4-dioxo-3,4-dihydropyrimidin-1(2H)-yl)methoxy)-2-methylpentan-2-yl)benzenesulfonamide] | 7640

More lines, in order of falling IC50, values ahead:

IC50 [nM] | SMILES
520 | O=c1ccn(CCCCCS(=O)(=O)NCc2cccc(OCC3CC3)c2)c(=O)[nH]1 [Example 103, N-(3-(cyclopropylmethoxy)benzyl)-5-(2,4-dioxo-3,4-dihydropyrimidin-1(2H)-yl)pentane-1-sulfonamide]
480 | O=c1ccn(CCCS(=O)(=O)N2CCC[C@@H]2C(O)(c2ccccc2)c2ccccc2)c(=O)[nH]1 [Example 130, (R)-1-(3-(2-(hydroxydiphenylmethyl)pyrrolidin-1-ylsulfonyl)propyl)pyrimidine-2,4(1H, 3H)-dione]
410 | O=c1ccn(C/C=C/CCS(=O)(=O)NCc2cccc(OCC3CC3)c2)c(=O)[nH]1 [Example 113, (E)-N-(3-(cyclopropylmethoxy)benzyl)-5-(2,4-dioxo-3,4-dihydropyrimidin-1(2H)-yl)pent-3-ene-1-sulfonamide]
400 | O=c1ccn(CCCS(=O)(=O)N2CCC[C@@H]2C(O)(c2ccc(F)cc2)c2ccc(F)cc2)c(=O)[nH]1 [Example 131, (R)-1-(3-(2-(bis(4-fluorophenyl)(hydroxy)methyl)pyrrolidin-1-ylsulfonyl)propyl)pyrimidine-2,4(1H, 3H)-dione]
380 | O=c1ccn(CCCS(=O)(=O)N2CCC[C@@H]2C(O)(c2cccc(F)c2)c2cccc(F)c2)c(=O)[nH]1 [Example 132, (R)-1-(3-(2-(bis(3-fluorophenyl)(hydroxy)methyl)pyrrolidin-1-ylsulfonyl)propyl)pyrimidine-2,4(1H, 3H)-dione]
350 | O=c1ccn(CCCS(=O)(=O)N[C@H](c2ccc(F)cc2)c2ccc(F)c(OCC3CC3)c2)c(=O)[nH]1 [Example 116, (R)—N-((3-(cyclopropylmethoxy)-4-fluorophenyl)(4-fluorophenyl)methyl)-3-(2,4-dioxo-3,4-dihydropyrimidin-1(2H)-yl)propane-1-sulfonamide]
270 | O=c1ccn(CC2CCN(S(=O)(=O)NCc3cccc(OCC4CC4)c3)CC2)c(=O)[nH]1 [Example 128, N-(3-(cyclopropylmethoxy)benzyl)-4-((2,4-dioxo-3,4-dihydropyrimidin-1(2H)-yl)methyl)piperidine-1-sulfonamide]
250 | CC[C@@H](NS(=O)(=O)CCCn1ccc(=O)[nH]c1=O)c1ccc(F)c(OCC2CC2)c1 [Example 115, (R)—N-(1-(3-(cyclopropylmethoxy)-4-fluorophenyl)propyl)-3-(2,4-dioxo-3,4-dihydropyrimidin-1(2H)-yl)propane-1-sulfonamide]
120 | C[C@@H](NS(=O)(=O)CCCCCn1ccc(=O)[nH]c1=O)c1cccc(OC2CCCC2)c1 [Example 106, (R)—N-(1-(3-(cyclopentyloxy)phenyl)ethyl)-5-(2,4-dioxo-3,4-dihydropyrimidin-1(2H)-yl)pentane-1-sulfonamide]
120 | C[C@@H](NS(=O)(=O)CCCCCn1ccc(=O)[nH]c1=O)c1cccc(OCC2CC2)c1 [Example 109, (R)—N-(1-(3-(cyclopropylmethoxy)phenyl)ethyl)-5-(2,4-dioxo-3,4-dihydropyrimidin-1(2H)-yl)pentane-1-sulfonamide]
70 | C[C@@H](NS(=O)(=O)CCCCCn1ccc(=O)[nH]c1=O)c1ccc(F)c(OCC2CC2)c1 [Example 101, (R)—N-(1-(3-(cyclopropylmethoxy)-4-fluorophenyl)ethyl)-5-(2,4-dioxo-3,4-dihydropyrimidin-1(2H)-yl)pentane-1-sulfonamide]
40 | C[C@@H](NS(=O)(=O)CC/C=C/Cn1ccc(=O)[nH]c1=O)c1ccc(F)c(OCC2CC2)c1 [Example 100, (R,E)-N-(1-(3-(cyclopropylmethoxy)-4-fluorophenyl)ethyl)-5-(2,4-dioxo-3,4-dihydropyrimidin-1(2H)-yl)pent-3-ene-1-sulfonamide]
